Structures can show the parent of a compound that is named as a salt.

Assay [1] deals with T1, Adrenergic β2 (Homo sapiens, UniProt P07550).
T1 construct: Adherent H292 cells were removed from tissue culture flasks; endogenous in cells; host or cells: H292 cells
As to the kind of experiment: Adrenergic β2 mediated cAMP production in H292 cells (AlphaScreen cAMP detection). The note with it: for β2 Int Act: Intrinsic Activity as a fraction relative to the maximum activity determined for formoterol; for EC50: cAMP production, 60 minutes at room temperature, 300 μM rolipram, read-out: β2 pEC50 (converted). In kind it is cell-based. Also noted: key to β2 Int Act: fraction of formoterol maximum activity (formoterol = 1). Summed up:
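H292 cells pre-treated 10 min with rolipram (300 μM final), then given agonist for 60 min at room temperature in HBSS/10 mM HEPES pH 7.4, 1.6% DMSO final. Lysate cAMP measured by AlphaScreen against a cAMP standard curve. Four-parameter fit gives pEC50; intrinsic activity relative to formoterol maximum.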
On the technique in general: cAMP levels reflect the balance of adenylyl cyclase and phosphodiesterase activity.

The target in assay [2] is T2, recombinant human adrenergic beta 1 receptors (Homo sapiens, UniProt P08588).
T2 construct: purchased Euroscreen
T2 sequence (P08588 whole entry): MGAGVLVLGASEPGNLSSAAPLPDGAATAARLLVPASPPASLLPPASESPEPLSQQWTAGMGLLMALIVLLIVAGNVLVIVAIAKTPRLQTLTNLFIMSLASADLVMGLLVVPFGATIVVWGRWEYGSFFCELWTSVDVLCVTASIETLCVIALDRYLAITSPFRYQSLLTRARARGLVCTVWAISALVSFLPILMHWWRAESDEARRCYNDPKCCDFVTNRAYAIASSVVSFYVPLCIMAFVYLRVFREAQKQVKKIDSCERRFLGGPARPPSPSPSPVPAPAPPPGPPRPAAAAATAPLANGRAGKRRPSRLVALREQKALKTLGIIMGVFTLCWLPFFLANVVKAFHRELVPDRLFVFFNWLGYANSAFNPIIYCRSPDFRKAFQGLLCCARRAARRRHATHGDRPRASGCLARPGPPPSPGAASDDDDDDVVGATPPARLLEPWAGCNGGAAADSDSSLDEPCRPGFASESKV
As to the kind of experiment: Adrenergic β1 selectivity assay, [125I]-Iodocyanopindolol binding to membranes. Conditions: inhibition of [125I]-Iodocyanopindolol binding, read-out: β1 bind pIC50 (converted). In short, it runs like this:
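Displacement of [^125I]-Iodocyanopindolol (0.036 nM final) from human β1 receptor membranes, 2 hours at room temperature, pH 7.4 HEPES/EDTA/NaCl buffer. After filtration, scintillation counting; NSB set with 10 μM propranolol and subtracted. Four-parameter logistic fitting gave pIC50.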

The target of assay [3] is T3, recombinant human Dopamine Subtype D2s receptors (Homo sapiens, UniProt P14416).
T3 construct: purchased Perkin Elmer
T3 sequence (P14416 1-414 isoform P14416-2): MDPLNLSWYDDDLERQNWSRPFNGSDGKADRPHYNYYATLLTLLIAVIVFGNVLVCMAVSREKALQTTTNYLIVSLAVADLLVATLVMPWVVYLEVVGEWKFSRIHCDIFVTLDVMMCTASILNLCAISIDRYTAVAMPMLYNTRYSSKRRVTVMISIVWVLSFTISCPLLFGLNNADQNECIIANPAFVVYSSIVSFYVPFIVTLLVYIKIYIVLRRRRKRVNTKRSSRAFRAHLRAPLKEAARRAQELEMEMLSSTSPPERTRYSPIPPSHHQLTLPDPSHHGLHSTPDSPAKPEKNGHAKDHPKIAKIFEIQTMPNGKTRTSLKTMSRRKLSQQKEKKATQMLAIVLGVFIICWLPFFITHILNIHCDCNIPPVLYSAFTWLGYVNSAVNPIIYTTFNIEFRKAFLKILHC
As to the kind of experiment: Dopamine D2 selectivity assay, [3H]-spiperone binding to membranes. The note with it: inhibition of [3H]-spiperone binding, read-out: D2 bind pIC50 (converted). In short, it runs like this: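 Human D2s receptor membranes incubated 2 h at room temperature with 0.16 nM [3H]-spiperone and test compound in HEPES buffer pH 7.4 (120 mM NaCl, 0.1% gelatin). Non-specific binding defined with 10 μM haloperidol; filter-bound radioactivity counted, pIC50 from four-parameter logistic fit.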

T1 sequence (P07550 whole entry): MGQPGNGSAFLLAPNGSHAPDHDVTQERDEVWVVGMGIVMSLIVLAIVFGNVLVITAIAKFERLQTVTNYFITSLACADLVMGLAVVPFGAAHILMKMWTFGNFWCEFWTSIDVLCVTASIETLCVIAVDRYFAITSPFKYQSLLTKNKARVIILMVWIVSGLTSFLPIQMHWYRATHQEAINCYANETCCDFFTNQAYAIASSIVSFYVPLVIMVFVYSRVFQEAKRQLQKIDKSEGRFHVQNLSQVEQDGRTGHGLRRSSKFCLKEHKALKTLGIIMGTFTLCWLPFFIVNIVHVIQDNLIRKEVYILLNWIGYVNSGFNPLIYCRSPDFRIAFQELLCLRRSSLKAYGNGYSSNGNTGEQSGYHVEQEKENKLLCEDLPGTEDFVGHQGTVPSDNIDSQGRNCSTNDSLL

With `CCCC[C@@H](C)N(CCNCCc1ccc(O)c2c1OCC(=O)N2)C(=O)CCNCCc1ccc(F)c(C)c1` [Example 47, (R)-3-(4-Fluoro-3-methylphenethylamino)-N-(hexan-2-yl)-N-(2-(2-(5-hydroxy-3-oxo-3,4-dihydro-2H-benzo[b][1,4]oxazin-8-yl)ethylamino)ethyl)propanamide bis(trifluoroacetate)], in assay [1], the “β2 Int Act” value is 0.89 and the EC50 was 1.58 nM. Besides, the IC50 in assay [2] was 631 nM. Besides, the IC50 in assay [3] was 50.1 nM.

On to `CCCC[C@@H](C)N(CCNCCc1ccc(O)c2c1OCC(=O)N2)C(=O)CCNCCc1ccc(F)c(Cl)c1` [Example 48, (R)-3-(3-Chloro-4-fluorophenethylamino)-N-(hexan-2-yl)-N-(2-(2-(5-hydroxy-3-oxo-3,4-dihydro-2H-benzo[b][1,4]oxazin-8-yl)ethylamino)ethyl)propanamide bis(trifluoroacetate)], for which, in assay [1], the “β2 Int Act” value was determined as 0.91 and the EC50 was 2 nM. The IC50 in assay [2] is 794 nM. Besides, the IC50 in assay [3] is 79.4 nM.

On to `CCCC[C@@H](C)N(CCNCCc1ccc(O)c2c1OCC(=O)N2)C(=O)CCNCCc1ccc(Cl)s1` [Example 49, (R)-3-(2-(5-Chlorothiophen-2-yl)ethylamino)-N-(hexan-2-yl)-N-(2-(2-(5-hydroxy-3-oxo-3,4-dihydro-2H-benzo[b][1,4]oxazin-8-yl)ethylamino)ethyl)propanamide bis(trifluoroacetate)], for which, in assay [1], the “β2 Int Act” value worked out at 1.01 and the EC50 is 2.51 nM. Also, in assay [2], the IC50 was 1000 nM. Besides, the IC50 in assay [3] was 63.1 nM.

For `CCCC[C@@H](C)N(CCNCCc1ccc(O)c2c1OCC(=O)N2)C(=O)CCNCCc1cc(F)cc(Cl)c1` [Example 50, (R)-3-(3-Chloro-5-fluorophenethylamino)-N-(hexan-2-yl)-N-(2-(2-(5-hydroxy-3-oxo-3,4-dihydro-2H-benzo[b][1,4]oxazin-8-yl)ethylamino)ethyl)propanamide bis(trifluoroacetate)], in assay [1], the “β2 Int Act” value is reported as 0.89 and the EC50 was 1.26 nM. Further, the IC50 in assay [2] was 1260 nM. Further, the IC50 in assay [3] is 31.6 nM.

On to `CCCC[C@@H](C)N(CCNCCc1ccc(O)c2c1OCC(=O)N2)C(=O)CCNCCc1cc(F)cc(F)c1` [Example 51, (R)-3-(3,5-Difluorophenethylamino)-N-(hexan-2-yl)-N-(2-(2-(5-hydroxy-3-oxo-3,4-dihydro-2H-benzo[b][1,4]oxazin-8-yl)ethylamino)ethyl)propanamide bis(trifluoroacetate)], for which, in assay [1], the “β2 Int Act” value was found to be 0.94 and the EC50 is 1.58 nM. The IC50 in assay [2] is 2000 nM. The IC50 in assay [3] was 39.8 nM.

Regarding `CCCC[C@@H](C)N(CCNCCc1ccc(O)c2c1OCC(=O)N2)C(=O)CCNCCc1ccc(F)c(F)c1` [Example 52, (R)-3-(3,4-Difluorophenethylamino)-N-(hexan-2-yl)-N-(2-(2-(5-hydroxy-3-oxo-3,4-dihydro-2H-benzo[b][1,4]oxazin-8-yl)ethylamino)ethyl)propanamide bis(trifluoroacetate)], in assay [1], the “β2 Int Act” value amounted to 0.95 and the EC50 was 10 nM. The IC50 in assay [2] was 1580 nM. Moreover, in assay [3], the IC50 was 63.1 nM.

Take `CCCC[C@@H](C)N(CCNCCc1ccc(O)c2c1OCC(=O)N2)C(=O)CCNCCc1cccc(F)c1F` [Example 53, (R)-3-(2,3-Difluorophenethylamino)-N-(hexan-2-yl)-N-(2-(2-(5-hydroxy-3-oxo-3,4-dihydro-2H-benzo[b][1,4]oxazin-8-yl)ethylamino)ethyl)propanamide bis(trifluoroacetate)]: in assay [1], the “β2 Int Act” value is on record as 0.99. Besides, the EC50 in assay [1] is 6.31 nM. For the same compound, the IC50 is 2510 nM in assay [2] and 39.8 nM in assay [3].

In the case of `CCCC[C@@H](C)N(CCNCCc1ccc(O)c2c1OCC(=O)N2)C(=O)CCNCCc1cc(F)ccc1F` [Example 54, (R)-3-(2,5-Difluorophenethylamino)-N-(hexan-2-yl)-N-(2-(2-(5-hydroxy-3-oxo-3,4-dihydro-2H-benzo[b][1,4]oxazin-8-yl)ethylamino)ethyl)propanamide bis(trifluoroacetate)], in assay [1], the “β2 Int Act” value stood at 0.96 and the EC50 was 5.01 nM. The IC50 in assay [2] is 2000 nM. The IC50 in assay [3] was 31.6 nM.

On to `CCCC[C@@H](C)N(CCNCCc1ccc(O)c2c1OCC(=O)N2)C(=O)CCNCCc1ccc(Cl)c(Cl)c1` [Example 55, (R)-3-(3,4-Dichlorophenethylamino)-N-(hexan-2-yl)-N-(2-(2-(5-hydroxy-3-oxo-3,4-dihydro-2H-benzo[b][1,4]oxazin-8-yl)ethylamino)ethyl)propanamide bis(trifluoroacetate)], for which, in assay [1], the “β2 Int Act” value is listed as 0.92 and the EC50 was 31.6 nM. For the same compound, the IC50 in assay [2] is 1000 nM. Further, the IC50 in assay [3] is 50.1 nM.

Regarding `CCCC[C@@H](C)N(CCNCCc1ccc(O)c2c1OCC(=O)N2)C(=O)CCNCCc1cc(C)ccc1F` [Example 56, (R)-3-(2-Fluoro-5-methylphenethylamino)-N-(hexan-2-yl)-N-(2-(2-(5-hydroxy-3-oxo-3,4-dihydro-2H-benzo[b][1,4]oxazin-8-yl)ethylamino)ethyl)propanamide bis(trifluoroacetate)], in assay [1], the “β2 Int Act” value was 0.91. Moreover, the EC50 in assay [1] was 7.94 nM. Further, the IC50 in assay [2] is 2000 nM; in assay [3], 31.6 nM.

`CCCC[C@@H](C)N(CCNCCc1ccc(O)c2c1OCC(=O)N2)C(=O)CCNCCc1cc(F)ccc1C` [Example 57, (R)-3-(5-Fluoro-2-methylphenethylamino)-N-(hexan-2-yl)-N-(2-(2-(5-hydroxy-3-oxo-3,4-dihydro-2H-benzo[b][1,4]oxazin-8-yl)ethylamino)ethyl)propanamide bis(trifluoroacetate)]: in assay [1], the “β2 Int Act” value came to 0.91 and the EC50 is 7.94 nM. In addition, in assay [2], the IC50 is 1580 nM. Moreover, the IC50 in assay [3] is 15.8 nM.

For `CC[C@@H](C)N(CCNCCc1ccc(O)c2c1OCC(=O)N2)C(=O)CCNCCc1ccc(Cl)c(Cl)c1` [Example 58, (R)—N-sec-Butyl-3-(3,4-dichlorophenethylamino)-N-(2-(2-(5-hydroxy-3-oxo-3,4-dihydro-2H-benzo[b][1,4]oxazin-8-yl)ethylamino)ethyl)propanamide dihydrochloride], in assay [1], the “β2 Int Act” value was found to be 0.91. The EC50 in assay [1] was 7.94 nM. For the same compound, the IC50 is 2000 nM in assay [2] and 39.8 nM in assay [3].

Consider `CC(C)[C@@H](C)N(CCNCCc1ccc(O)c2c1OCC(=O)N2)C(=O)CCNCCc1ccc(Cl)c(Cl)c1` [Example 59, (R)-3-(3,4-Dichlorophenethylamino)-N-(2-(2-(5-hydroxy-3-oxo-3,4-dihydro-2H-benzo[b][1,4]oxazin-8-yl)ethylamino)ethyl)-N-(3-methylbutan-2-yl)propanamide dihydrochloride], for which, in assay [1], the “β2 Int Act” value was 0.87 and the EC50 is 3.98 nM. The IC50 in assay [2] is 2000 nM. The IC50 in assay [3] was 100 nM.

With `C[C@H](C1CCCCC1)N(CCNCCc1ccc(O)c2c1OCC(=O)N2)C(=O)CCNCCc1ccccc1` [Example 61, (R)—N-(1-Cyclohexylethyl)-N-(2-(2-(5-hydroxy-3-oxo-3,4-dihydro-2H-benzo[b][1,4]oxazin-8-yl)ethylamino)ethyl)-3-(phenethylamino)propanamide bis(trifluoroacetate)], in assay [1], the “β2 Int Act” value is 0.84 and the EC50 was 3.16 nM. Moreover, the IC50 in assay [2] is 501 nM. Also, in assay [3], the IC50 is 100 nM.

On to `Cc1cc(CCNCCC(=O)N(CCNCCc2ccc(O)c3c2OCC(=O)N3)C2CCCCCC2)ccc1F` [Example 62, N-Cycloheptyl-3-(4-fluoro-3-methylphenethylamino)-N-(2-(2-(5-hydroxy-3-oxo-3,4-dihydro-2H-benzo[b][1,4]oxazin-8-yl)ethylamino)ethyl)propanamide bis(trifluoroacetate)], for which, in assay [1], the “β2 Int Act” value is listed as 0.86 and the EC50 was 3.98 nM. The IC50 in assay [2] was 251 nM. The IC50 in assay [3] was 63.1 nM.

Regarding `O=C1COc2c(CCNCCN(C(=O)CCNCCc3ccc(Cl)cc3)C3CCCCCC3)ccc(O)c2N1` [Example 63, 3-(4-Chlorophenethylamino)-N-cycloheptyl-N-(2-(2-(5-hydroxy-3-oxo-3,4-dihydro-2H-benzo[b][1,4]oxazin-8-yl)ethylamino)ethyl)propanamide bis(trifluoroacetate)], in assay [1], the “β2 Int Act” value is reported as 0.79 and the EC50 is 2 nM. For the same compound, the IC50 in assay [2] was 251 nM. In addition, the IC50 in assay [3] was 39.8 nM.

For `O=C1COc2c(CCNCCN(C(=O)CCNCCc3cc(F)ccc3F)C3CCCCCC3)ccc(O)c2N1` [Example 64, N-Cycloheptyl-3-(2,5-difluorophenethylamino)-N-(2-(2-(5-hydroxy-3-oxo-3,4-dihydro-2H-benzo[b][1,4]oxazin-8-yl)ethylamino)ethyl)propanamide bis(trifluoroacetate)], in assay [1], the “β2 Int Act” value amounted to 0.88 and the EC50 is 0.631 nM. Besides, in assay [2], the IC50 was 1260 nM. The IC50 in assay [3] is 63.1 nM.

These data come from US20100056508A1, “AMINE DERIVATIVES AND THEIR USE IN BETA-2-ADRENORECEPTOR MEDIATED DISEASES” (ASTRAZENECA AB, priority 2006, published 2010).
